One compound from patent US20140343105A1, “NOVEL ORALLY ADMINISTERED DABIGATRAN FORMULATION” (BOEHRINGER INGELHEIM INTERNATIONAL GMBH, priority 2012, published 2014) can be followed below.

Broadly, the solubility is how much of the substance goes into solution per volume.

Converted amounts (≈) assume the structure as drawn.

Data set [1] is described as follows: Solubility of the active ingredient (DS) in cyclodextrin solutions at various pH values (UV/VIS). Format: physicochemical. The protocol:
Dabigatranetexilat methanesulphonate is tested for its solubility in dependency of the presence of various cyclodextrins at various ph values as follows:
(§1) 2 ml Eppendorf tubes can be filled with about 1.8 ml aqueous solution with a selected pH value. The volume used for the screening is 1.8 ml. The molar amount of cyclodextrin (CD) in the given volume is calculated for the given CD concentration. For a given molar ratio of active ingredient DS/CD the amount of active ingredient (DS) is calculated. Normally, a molar ratio of DS/CD=1/1 is targeted: 1 mol DS and 1 mol CD. As precise as possible, the calculated amount of DS is weighted into the tube exactly. The actual amount is reported.
(§2) According to the actual amount of DS the necessary volume of CD solution is calculated. As precise as possible, the requested volume of CD solution is pipetted into the tube. The actual volume pipetted is reported. The solution in the tube is placed on an Eppendorf Vario shaker. The solution is intensively shaken by means of ultrasound (Hielscher Ultrasound Processor) for 10 seconds at the maximum. It is payed attention to heat generation and overheating has to be avoided.
(§3) The tube is shaken for 1 hour in the Eppendorf Thermomixer at the given temperature and at 800 rpm. Subsequently, the pH value is checked and the given pH value adjusted accordingly, if necessary. The tube is shaken for 24 hours in the Eppendorf Thermomixer at the given temperature and at 800 rpm.
Eppendorf tubes are centrifuged for about 15 minutes at the given temperature, but at 40° C. at the maximum (max. temperature of the centrifuge), and 14,000 rpm. In case no clear supernatant is obtained centrifugation is repeated with adjusted rpm (revolutions per minute) and time. […]
(§4) The clear supernatant or filtrate is used for the analysis of the concentration. The pH value of the clear solution is analysed. The DS concentration of the clear solution is measured by UV/VIS spectroscopy (e.g., Hewlett-Packard 8453 UV/Visible Spectrophotometer).

The nature of data set [2]: Solubility of DS in presence of hydrophilic polymers (CMC-Na) and cyclodextrins. Type of data set: physicochemical. The protocol: as §1, §2, §3
Eppendorf tubes are centrifuged for about 15 minutes at the given temperature, but at 40° C. at the maximum (max. temperature of the centrifuge), and 14,000 rpm. In case no clear supernatant is obtained centrifugation is repeated with adjusted rpm (revolutions per minute) and time. In case the supernatant is not clear and a filtration step is necessary the content of the tube is sucked or poured into 2 ml single use syringe. The supernatant is filtered through a 0.2 μm filter (Pall GHP Acrodisc 13 mm Syringe Filter 0.2 μm pore size). About 2-3 drops of the solution are discarded. The rest of the volume is collected in a second tube. If temperatures above room temperature (about 22° C.) are given, filters and tubes have to be tempered at that temperature prior to use.
as §4
DS, especially Dabigatranetexilat methanesulphonate, is tested for its solubility in dependency of the presence of various hydrophilic polymers and various cyclodextrins whereby the hydrophilic polymer is added to the aqueous solution before adding the DS.

In the case of `CCCCCCOC(=O)NC(=N)c1ccc(NCc2nc3cc(C(=O)N(CCC(=O)OCC)c4ccccn4)ccc3n2C)cc1` [DS, dabigatran etexilate], in data set [1] (all cyclodextrins tested, various pH values), the “effect of cyclodextrins on solubility of the active ingredient” value is reported as “significantly improve the solubility”. The solubility at 24 h was approximately 43 mg/mL (≈ 68.5 mM) in data set [1] (aqueous α-cyclodextrin solution, aqueous with cosolvent or surfactant or cyclodextrin, thermodynamic from solid, 10% (w/v) α-CD solution at pH 3) and approximately 67.3 mg/mL in data set [2] (aqueous α-cyclodextrin solution with CMC-Na, aqueous with cosolvent or surfactant or cyclodextrin, thermodynamic from solid, 14% α-CD solution at pH 3 with 0.25% CMC-Na). The “mol α-CD necessary to complex 1 mol API” value in data set [1] (α-CD 10% (w/v)) was “About 1.7 mol”; in data set [2] (α-CD, CMC-Na added) it was “About 1.6 mol”. For the same compound, in data set [2] (addition of 0.05% to 0.5% of CMC-Na, α-CD 10% (w/v)), the “increase of the solubility of the DS and of the drug load DS/CD” value is “up to 11%”. In addition, the “complexation efficiency of the CD” value in data set [2] (addition of a hydrophilic polymer before adding the DS) is listed as “significantly improved”. Besides, in data set [2] (α-CD, CMC-Na added), the “g α-CD to complex 1 g API” value was “≈ 2.1 g”.
